{
  "source": "patent US20260272895A1",
  "about": "“METHODS AND KITS FOR DELIVERY OF COMPOUNDS INTO CELLS” (Yale University, priority 2023, published 2026)",
  "key": {"SLC2A3": {"test_system": "SLC2A3", "experiment": "Compound uptake in HEK293 expressing solute carrier family 2 member 3", "assay_type": "cell-based", "method": "HEK293 cells are cultured and seeded at ~60% confluency in 24-well plates and are transiently transfected with 250 ng of a candidate transporter and 1 μL transfection reagent (JetPRIME). After 2 days, cells are washed and novel fluorescent probes at different concentrations are added to the transport medium and incubated at 37° C., for at least 30 minutes. To terminate the transport, cells are washed with PBS and fixed with 4% paraformaldehyde. The colocalization of probe uptake and cells expressing the transporters is investigated by immunostaining the transporter which has a fused FLAG tag, using anti-FLAG 488. Before confocal imaging, nuclei are labeled with Hoechst 33342 and cells are mounted and imaged on a Leica SP8 confocal microscope.\nFor in vitro experiments, HEK293 cells were cultured and seeded in 24-well plates, reaching approximately 60% confluency. For transient transfection, 250 ng of a candidate transporter plasmid and 1 μL of transfection reagent (JetPRIME) were added to the cells. After a 2-day incubation period, the cells were washed, and novel fluorescent probes were introduced into the transport medium at various concentrations. The cells were then incubated at 37° C., for a minimum of 30 minutes to allow for uptake. To stop the transport process, the cells were washed with PBS and fixed using 4% paraformaldehyde. […]"}, "[1]": {"test_system": "brain endothelium / blood brain barrier", "experiment": "In vivo two-photon imaging of mouse brain cortex after intravenous administration", "method": "Briefly, animals are anaesthetized via intraperitoneal injections of ketamine/xylazine or via inhaled isoflurane. A region of the skull (3×3 mm) is gently removed with a high-speed drill and the underlying dura is removed. A small glass coverslip is placed over the skull to allow long term optical access for in vivo imaging. Labeling with fluorescent dyes is performed either via intravenous injections or topically application to the cortical surface for 20 min prior to glass cover placement. After recovery, in vivo images are acquired using a two-photon microscope (Bruker Technologies) equipped with a multimodal (fixed wavelength 1040 nm and tunable wavelength) InSight X3 two-photon laser (Spectra Physics) and 20× water immersion objective (Zeiss 1.0N.A.). The two-photon laser is appropriately tuned to excite particular fluorescent dyes and proteins as needed. In selected cases, following in vivo imaging, mice will be sacrificed and perfused for follow up immunohistochemistry and high-resolution confocal imaging (Leica SP8) to further confirm colocalization of dyes and cells expressing particular transporters.\nOne-month-old wild-type mice were anesthetized using a ketamine/xylazine solution at doses of 100 mg/kg and 10 mg/kg, respectively. The fur around the skull area was shaved, and buprenex (0.1 mg per kg) and carprofen (5 mg per kg) were administered subcutaneously. Mice were kept on a heating pad at 37° C., and anesthesia was periodically monitored. The skin was treated with povidone-iodine solution, followed by cleaning with ethanol, and eye ointment was applied. A small skin section was excised to expose the skull. Thinning of the skull was performed in a circular area, followed by delicately lifting of the remaining skull without harm to the underlying brain. Within the circular region, the dura was gently removed using fine forceps, and a 4 mm cover glass was softly pressed onto the brain surface and affixed to the skull. Fluorescent dyes were applied either through intravenous injections or topically to the cortical surface for 20 minutes before placing the glass cover. A customized head bar was attached either by adhesive (for acute imaging) or permanently implanted (using dental cement, for chronic imaging) onto the skull. Mice were imaged under a two-photon microscope (Prairie Technologies) with a mode-locked MaiTai tunable laser (Spectra Physics). Imaging was performed with a 20× water immersion objective (Zeiss, 1.0NA). Images were captured at depths up to 300 μm from the pial surface using excitation wavelengths ranging from 750 to 950 nm as previously described. Mice undergoing chronic imaging received a recovery period on a heating pad post-surgery, and buprenex (0.1 mg per kg) and carprofen (5 mg per kg) were administered for 3 days. […]"}, "[2]": {"experiment": "Assessment of in vivo compound toxicity (fur regrowth, body weight)", "parameters": "species or system mouse", "settings": "intradermal injection (fur regrowth) and daily intraperitoneal injection for 5 days (body weight)", "method": "To evaluate systemic toxicity, mouse weight was monitored daily, focusing on P20 mice in their active growth stage. For local toxicity assessment, the mouse fur was shaved to stimulate follicular stem cell division and subsequent hair regrowth. Compounds were injected intradermally on the right lower back quadrant and the left quadrant was used as a control. Hair regrowth was monitored for 12 days with serial photography followed by quantification using NIH Image J Plot Profile Plug-In, yielding pixel intensity profiles. Changes in pixel intensity where compared between injected (right quadrant) versus noninjected (left quadrant) by using the following formula:\n(Noninjected intensity−Injected intensity)/Noninjected intensity×100%. (Eq. 1)"}},
  "note": "“Also recorded” adds a separate entry of the source.",
  "data": [
    {"smiles": "O=S(=O)([O-])c1cc(S(=O)(=O)O)ccc1C1=c2cc3c4c(c2Oc2cc(Br)ccc21)CCC[N+]=4CCC3", "note": "[Compound 1, 2-(12-bromo-1,2,3,5,6,7-hexahydrochromeno[2,3-f]pyrido[3,2,1-ij]quinolin-4-ium-9-yl)-5-sulfobenzenesulfonate]", "values": [
      {"measurement": "uptake on expression of SLC2A3", "setting": "SLC2A3", "value": "does not induce uptake"},
      {"measurement": "entry into non-endothelial cells", "setting": "[1]; 2 hours post intravenous injection", "value": "does not enter non-endothelial cells; also recorded: does not enter other cells except for endothelial cells"},
      {"measurement": "brain endothelial labeling after intravenous administration", "setting": "[1]; IV 50 microliters at 20 mg/ml, 10 min to 130 min post injection", "value": "marked uptake of the compound into the capillary endothelial wall; also recorded: robust brain endothelial labeling"},
      {"measurement": "interstitial space fluorescence / blood brain barrier crossing", "setting": "[1]; IV, 10 min vs 130 min or 2 hours post injection", "value": "located in the brain interstitial space; also recorded: marked increase in the interstitial space fluorescence"},
      {"measurement": "punctate labeling in the endothelium", "setting": "[1]; lower concentration IV in 120 μL of PBS, around 2 hours post injection", "value": "bright punctate labeling becomes apparent in the endothelium"}
    ]},
    {"smiles": "COc1cc2c(c(OC)c1OC)-c1ccc(OC)c(=O)cc1C(NS(=O)(=O)c1ccc(-c3c4ccc(N(C)C)cc4[o+]c4cc(N(C)C)ccc34)c(S(=O)(=O)[O-])c1)CC2", "note": "(stereo not drawn) [Compound 47, 2-(3,6-bis(dimethylamino)xanthylium-9-yl)-5-(N-(1,2,3,10-tetramethoxy-9-oxo-5,6,7,9-tetrahydrobenzo[a]heptalen-7-yl)sulfamoyl)benzenesulfonate]", "values": [
      {"measurement": "local and systemic toxicity", "setting": "[2]", "value": "markedly reduced local and systemic toxicity"}
    ]}
  ]
}
